Measured values from patent US6939680B2 (H. Lundbeck A/S, priority 1990, dated 2005).
Like-named read-outs stand apart in the source and are kept apart here.

Tests used:
DA1 receptor = details: clinical trials; cited from earlier work
[1] = target: T1, human dopamine D1 receptor clone GL-30 (dopamine D1β receptor) (Homo sapiens, UniProt P21918); assay: [3H]SCH-23390 radioligand binding (saturation and competition) to membranes of Cos-7 cells transfected with clone GL-30
T1 construct: expressed in transfected cells; host or cells: Cos-7 cells, transient transfection with pcEXV-3 carrying GL-30
T1 sequence (P21918 whole entry): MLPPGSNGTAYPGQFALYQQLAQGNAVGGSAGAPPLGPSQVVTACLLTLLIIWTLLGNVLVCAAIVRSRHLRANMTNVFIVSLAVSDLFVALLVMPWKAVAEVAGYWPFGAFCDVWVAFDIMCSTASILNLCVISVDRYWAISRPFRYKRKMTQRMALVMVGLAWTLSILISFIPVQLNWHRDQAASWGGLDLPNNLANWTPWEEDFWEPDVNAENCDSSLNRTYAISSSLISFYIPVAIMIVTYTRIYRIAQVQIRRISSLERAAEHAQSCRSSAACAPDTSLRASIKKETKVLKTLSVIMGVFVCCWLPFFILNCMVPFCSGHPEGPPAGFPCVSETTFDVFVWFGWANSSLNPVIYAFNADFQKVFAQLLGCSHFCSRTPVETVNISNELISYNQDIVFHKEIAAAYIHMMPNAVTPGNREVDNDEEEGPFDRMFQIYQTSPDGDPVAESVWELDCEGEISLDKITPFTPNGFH

[2] = competition binding, GL-30 in Cos-7 membranes

potency/affinity in displacing [3H]SCH-23390 binding (in words) [1, 2]	Molecule	potency/affinity in displacing [3H]SCH-23390 binding (in words) [1]	further results
–	Oc1ccc(C2CNCCc3c2cc(O)c(O)c3Cl)cc1 (stereo not drawn) [fenoldopam]	–	renal vasodilatory action (DA1 receptor): potent renal vasodilatory action
–	cis-flupenthixol	most potent	–
–	CCCN1CCC[C@@H]2Cc3n[nH]cc3C[C@H]21 [quinpirole]	low affinity	–
low affinity	CCN1CCC[C@H]1CNC(=O)c1cc(S(N)(=O)=O)ccc1OC [(−) sulpiride]	–	–
–	COc1ccc2c(c1O)-c1c3c(cc4c1[C@H](C2)N(C)CC4)OCO3 [bulbocapnine]	–	Ki values compared with those reported for the D1 receptor ([1]; versus native rat and human brain tissues and Cos-7 cells transfected with the previously cloned D1 gene): comparable
inactive	NC[C@H](O)c1ccc(O)c(O)c1 [norepinephrine]	–	–
